Here are results for 31 molecules from patent US10329295B2, “Pyrrolotriazine inhibitors of IRAK4 activity” (MERCK SHARP & DOHME CORP., priority 2015, dated 2019).

Counter-ions that a name gives are not always drawn.

Broadly, the IC50 is the midpoint of a concentration-inhibition curve.

The target in this assay is GST tagged IRAK4 (Homo sapiens (Human), UniProt Q9NWZ3). Briefly: IRAK4 Kinase Assay (IMAP fluorescence polarization). It counts as biochemical. To be noted: 0.5 nM GST tagged IRAK4, 100 μM ATP, 30 minutes at 25° C. Put shortly: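 Phosphorylation of a fluorescent peptide (100 nM) was detected by IMAP nanoparticle binding as increased fluorescence polarization. The enzyme was GST-tagged IRAK4 at 0.5 nM, with 100 μM ATP, 1 mM MgCl2 and Tris-HCl pH 7.2. ATP-initiated reactions ran 30 minutes at 25° C.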
GST tagged IRAK4, sequence (Q9NWZ3 whole entry): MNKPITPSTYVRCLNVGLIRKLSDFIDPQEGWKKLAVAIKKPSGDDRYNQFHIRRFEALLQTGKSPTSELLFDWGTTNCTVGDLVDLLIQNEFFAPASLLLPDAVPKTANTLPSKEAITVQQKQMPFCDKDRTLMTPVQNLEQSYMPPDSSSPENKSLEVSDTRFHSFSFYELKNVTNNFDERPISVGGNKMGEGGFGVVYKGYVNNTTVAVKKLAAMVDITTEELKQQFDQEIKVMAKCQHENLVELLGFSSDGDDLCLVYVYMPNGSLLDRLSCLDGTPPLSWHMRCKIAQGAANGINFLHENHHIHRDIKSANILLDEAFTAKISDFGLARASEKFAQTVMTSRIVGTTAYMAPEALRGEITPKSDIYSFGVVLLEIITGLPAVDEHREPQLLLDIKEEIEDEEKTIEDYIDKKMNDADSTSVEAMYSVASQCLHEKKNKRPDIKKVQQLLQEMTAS
(In fluorescence polarisation assays a small probe gives low polarisation when free and higher when bound to something large.)
`N[C@H]1CCCC[C@H]1Nc1ncc2ccc(C(=O)Nc3cscc3Br)n2n1` [Example 14, 2-{[(1R,2S)-2-aminocyclohexyl]amino}-N-(4-bromothiophen-3-yl)pyrrolo[2,1-f][1,2,4]triazine-7-carboxamide trifluoroacetate] gave an IC50 of 6 nM.

As to `Cn1cc(NC(=O)c2ccc3cnc(N4CCCNCC4)nn23)c(C(F)F)n1` [Example 15, 2-(1,4-diazepan-1-yl)-N-[3-(difluoromethyl)-1-methyl-1H-pyrazol-4-yl]pyrrolo[2,1-f][1,2,4]triazine-7-carboxamide trifluoroacetate], the IC50 was found to be 6 nM. In other words, the single-digit nanomolar range.

As to `Cn1cc(NC(=O)c2ccc3cnc(N[C@@H]4CCCNC4)nn23)c(C(F)F)n1` [Example 16, N-[3-(difluoromethyl)-1-methyl-1H-pyrazol-4-yl]-2-[(3R)-piperidin-3-ylamino]pyrrolo[2,1-f][1,2,4]triazine-7-carboxamide trifluoroacetate], the IC50 came to 1 nM.

`Cn1cc(NC(=O)c2ccc3cnc(N[C@@H]4CCCC[C@@H]4O)nn23)c(C(F)F)n1` [Example 17, N-[3-(difluoromethyl)-1-methyl-1H-pyrazol-4-yl]-2-{[(1R,2S)-2-hydroxycyclohexyl]amino}-pyrrolo[2,1-f][1,2,4]triazine-7-carboxamide trifluoroacetate] showed an IC50 of 4 nM.

On to `Cn1cc(NC(=O)c2ccc3cnc(N4CCC[C@@H](N)C4)nn23)c(C(F)F)n1` [Example 18, 2-[(3R)-3-aminopiperidin-1-yl]-N-[3-(difluoromethyl)-1-methyl-1H-pyrazol-4-yl]pyrrolo[2,1-f][1,2,4]triazine-7-carboxamide trifluoroacetate], for which 0.5 nM corresponded to half-maximal inhibition (IC50).

`Cn1cc(NC(=O)c2ccc3cnc(NC4CCCCNC4)nn23)c(C(F)F)n1` (stereo not shown) [Example 19, 2-(azepan-3-ylamino)-N-[3-(difluoromethyl)-1-methyl-1H-pyrazol-4-yl]pyrrolo[2,1-f][1,2,4]triazine-7-carboxamide trifluoroacetate] returned an IC50 of 1 nM.

Molecule `Cn1cc(NC(=O)c2ccc3cnc(N4CCNCC5(CC5)C4)nn23)c(C(F)F)n1` [Example 20, 2-(5,8-diazaspiro[2.6]non-5-yl)-N-[3-(difluoromethyl)-1-methyl-1H-pyrazol-4-yl]pyrrolo[2,1-f][1,2,4]triazine-7-carboxamide trifluoroacetate] yielded an IC50 of 2 nM.

The molecule `N#Cc1sccc1NC(=O)c1ccc2cnc(N[C@@H]3CCCC[C@@H]3N)nn12` [Example 21, 2-{[(1R,2S)-2-aminocyclohexyl]amino}-N-(2-cyanothiophen-3-yl)pyrrolo[2,1-f][1,2,4]triazine-7-carboxamide trifluoroacetate] displayed an IC50 of 1 nM.

For the molecule `N#Cc1sccc1NC(=O)c1ccc2cnc(N3CC4CCC3CN4)nn12` (stereo not shown) [Example 22, N-(2-cyanothiophen-3-yl)-2-(2,5-diazabicyclo[2.2.2]oct-2-yl)pyrrolo[2,1-f][1,2,4]triazine-7-carboxamide trifluoroacetate], the IC50 is 399 nM.

Take `O=C(Nc1cscc1Br)c1ccc2cnc(N3CCCNCC3)nn12` [Example 23, N-(4-bromothiophen-3-yl)-2-(1,4-diazepan-1-yl)pyrrolo[2,1-f][1,2,4]triazine-7-carboxamide trifluoroacetate]: the IC50 is 1680 nM.

In the case of `O=C(Nc1cscc1Br)c1ccc2cnc(N3CC4CCC3CN4)nn12` (stereo not shown) [Example 24, N-(4-bromothiophen-3-yl)-2-(2,5-diazabicyclo[2.2.2]oct-2-yl)pyrrolo[2,1-f][1,2,4]triazine-7-carboxamide trifluoroacetate], half-maximal inhibition (IC50) required 680 nM.

Consider `Cn1cc(NC(=O)c2ccc3cnc(N[C@@H]4CCCC[C@@H]4N)nn23)c(Cl)n1` [Example 25, 2-{[(1R,2S)-2-aminocyclohexyl]amino}-N-(3-chloro-1-methyl-1H-pyrazol-4-yl)pyrrolo[2,1-f][1,2,4]triazine-7-carboxamide trifluoroacetate], for which it took 1 nM to reach half-maximal inhibition (IC50).

Consider `Cn1cc(NC(=O)c2ccc3cnc(N4CCCNCC4)nn23)c(Cl)n1` [Example 26, N-(3-chloro-1-methyl-1H-pyrazol-4-yl)-2-(1,4-diazepan-1-yl)pyrrolo[2,1-f][1,2,4]triazine-7-carboxamide trifluoroacetate], for which half-maximal inhibition (IC50) was put at 61 nM.

Consider `N[C@H]1CCCC[C@H]1Nc1ncc2ccc(C(=O)Nc3ccccc3C(F)(F)F)n2n1` [Example 27, 2-{[(1R,2S)-2-aminocyclohexyl]amino}-N-[2-(trifluoromethyl)phenyl]-pyrrolo[2,1-f][1,2,4]triazine-7-carboxamide trifluoroacetate], for which it took 392 nM to reach half-maximal inhibition (IC50).

Molecule `O=C(Nc1ccccc1C(F)(F)F)c1ccc2cnc(N3CCCNCC3)nn12` [Example 28, 2-(1,4-diazepan-1-yl)-N-[2-(trifluoromethyl)phenyl]-pyrrolo[2,1-f][1,2,4]triazine-7-carboxamide trifluoroacetate] showed an IC50 of 3980 nM.

Take `Cn1cc(NC(=O)c2ccc3cnc(N4CC5CCC4CN5)nn23)c(C(F)F)n1` (stereo not shown) [Example 29, 2-(2,5-diazabicyclo[2.2.2]oct-2-yl)-N-[3-(difluoromethyl)-1-methyl-1H-pyrazol-4-yl]pyrrolo[2,1-f][1,2,4]triazine-7-carboxamide trifluoroacetate]: the IC50 was 7 nM.

For `N[C@H]1CCCC[C@H]1Nc1ncc2ccc(C(=O)Nc3ccsc3Cl)n2n1` [Example 30, 2-{[(1R,2S)-2-aminocyclohexyl]amino}-N-(2-chlorothiophen-3-yl)pyrrolo[2,1-f][1,2,4]triazine-7-carboxamide trifluoroacetate], the IC50 came out at 3 nM.

Molecule `O=C(Nc1ccsc1Cl)c1ccc2cnc(N3CCCNCC3)nn12` [Example 31, N-(2-chlorothiophen-3-yl)-2-(1,4-diazepan-1-yl)pyrrolo[2,1-f][1,2,4]triazine-7-carboxamide trifluoroacetate] returned an IC50 of 866 nM.

As to `N[C@H]1CCCC[C@H]1Nc1ncc2ccc(C(=O)Nc3ccccc3Br)n2n1` [Example 32, 2-{[(1R,2S)-2-aminocyclohexyl]amino}-N-(2-bromophenyl)pyrrolo[2,1-f][1,2,4]triazine-7-carboxamide trifluoroacetate], the IC50 amounted to 11 nM.

Turning to `O=C(Nc1ccccc1Br)c1ccc2cnc(N3CCCNCC3)nn12` [Example 33, N-(2-bromophenyl)-2-(1,4-diazepan-1-yl)pyrrolo[2,1-f][1,2,4]triazine-7-carboxamide trifluoroacetate], the IC50 is 5350 nM.

Molecule `Cn1cc(NC(=O)c2ccc3cnc(N4CCCNCC4)nn23)c(C#N)n1` [Example 34, N-(3-cyano-1-methyl-1H-pyrazol-4-yl)-2-(1,4-diazepan-1-yl)pyrrolo[2,1-f][1,2,4]triazine-7-carboxamide trifluoroacetate] had an IC50 of 352 nM. Against the preceding molecule, the IC50 is about 15-fold lower.

The molecule `Cn1cc(NC(=O)c2ccc3cnc(N[C@@H]4CCCC[C@@H]4N)nn23)c(C#N)n1` [Example 35, 2-{[(1R,2S)-2-aminocyclohexyl]amino}-N-(3-cyano-1-methyl-1H-pyrazol-4-yl)pyrrolo[2,1-f][1,2,4]triazine-7-carboxamide trifluoroacetate] came in with an IC50 of 1 nM. Against the preceding molecule, the IC50 is about 350-fold lower.

`N#Cc1cscc1NC(=O)c1ccc2cnc(N3CC4CCC3CN4)nn12` (stereo not shown) [Example 36, N-(4-cyanothiophen-3-yl)-2-(2,5-diazabicyclo[2.2.2]oct-2-yl)pyrrolo[2,1-f][1,2,4]triazine-7-carboxamide trifluoroacetate] had an IC50 of 426 nM.

Take `O=C(Nc1ccsc1Br)c1ccc2cnc(N3CCCNCC3)nn12` [Example 37, N-(2-bromothiophen-3-yl)-2-(1,4-diazepan-1-yl)pyrrolo[2,1-f][1,2,4]triazine-7-carboxamide trifluoroacetate]: the IC50 amounted to 1670 nM.

Take `N[C@H]1CCCC[C@H]1Nc1ncc2ccc(C(=O)Nc3ccsc3Br)n2n1` [Example 38, 2-{[(1R,2S)-2-aminocyclohexyl]amino}-N-(2-bromothiophen-3-yl)pyrrolo[2,1-f][1,2,4]triazine-7-carboxamide trifluoroacetate]: the 50% inhibitory concentration (IC50) came to 7 nM.

Take `O=C(Nc1ccccc1Cl)c1ccc2cnc(N3CCCNCC3)nn12` [Example 39, N-(2-chlorophenyl)-2-(1,4-diazepan-1-yl)pyrrolo[2,1-f][1,2,4]triazine-7-carboxamide trifluoroacetate]: half-maximal inhibition (IC50) required 228 nM.

For `N[C@H]1CCCC[C@H]1Nc1ncc2ccc(C(=O)Nc3ccccc3Cl)n2n1` [Example 40, 2-{[(1R,2S)-2-aminocyclohexyl]amino}-N-(2-chlorophenyl)pyrrolo[2,1-f][1,2,4]triazine-7-carboxamide trifluoroacetate], the IC50 is 3 nM.

Turning to `O=C(Nc1cscc1C(F)F)c1ccc2cnc(N3CCCNCC3)nn12` [Example 41, 2-(1,4-diazepan-1-yl)-N-[4-(difluoromethyl)thiophen-3-yl]pyrrolo[2,1-f][1,2,4]triazine-7-carboxamide trifluoroacetate], the IC50 stood at 88 nM.

With `N[C@H]1CCCC[C@H]1Nc1ncc2ccc(C(=O)Nc3cscc3C(F)F)n2n1` [Example 42, 2-{[(1R,2S)-2-aminocyclohexyl]amino}-N-[4-(difluoromethyl)thiophen-3-yl]pyrrolo[2,1-f][1,2,4]triazine-7-carboxamide trifluoroacetate], the IC50 amounted to 4 nM.

With `N#Cc1sccc1NC(=O)c1ccc2cnc(N3CCCNCC3)nn12` [Example 43, N-(2-cyanothiophen-3-yl)-2-(1,4-diazepan-1-yl)pyrrolo[2,1-f][1,2,4]triazine-7-carboxamide trifluoroacetate], the IC50 was found to be 1040 nM. This IC50 lies about 260-fold higher than the previous one.

Turning to `N#Cc1ccccc1NC(=O)c1ccc2cnc(N[C@@H]3CCCC[C@@H]3N)nn12` [Example 50, 2-{[(1R,2S)-2-aminocyclohexyl]amino}-N-(2-cyanophenyl)pyrrolo[2,1-f][1,2,4]triazine-7-carboxamide trifluoroacetate], the IC50 is 11 nM.
